Measurements published in publication PMC7277094 (Biomolecules, 2020).
Where “and” joins values, the source holds several entries; their conditions need not be identical. Equal entries are not always repeated. Where two headings read alike, the source gives them in different places.

Columns and labels:
Tlp3 LBD [1] = target: T1, Tlp3 LBD (Campylobacter jejuni subsp. jejuni, UniProt Q0P864); experiment: Isothermal titration calorimetry (ITC); type: binding, C. jejuni strain NCTC 11168; details: for ∆H: ITC binding enthalpy; for ∆H / ∆S / Kd: 25 °C; for ∆S: ITC binding entropy; for Kd / Binding to Tlp3 LBD detected by ITC: 10 µM Tlp3 LBD; for Binding to Tlp3 LBD detected by ITC: ligand at 10 mM
Experimental: Tlp3 LBD was dialysed against a buffer containing 100 mM Tris-HCl pH 8.0 and 150 mM NaCl. […] Calorimetry measurements were conducted on a VP-ITC MicroCal calorimeter (Malvern Instruments, UK) at 25 °C. The Tlp3 LBD sample (10 µM) in a 1.45 mL reaction cell was titrated with 25 successive 10 µL injections of ligand solution at a spacing of 200 s. All measurements were made in triplicate and corrected for heat changes measured when the ligand was titrated into the buffer. The data were integrated and normalised for protein concentration to generate binding isotherms.

Tlp3 LBD [2] = target: T1, Tlp3 LBD; experiment: Fluorescence-based thermal shift assay; type: binding, C. jejuni strain NCTC 11168; details: for ΔTm at 5000 µM: read-out: Thermal Shift ∆Tm; for Thermal Shift ∆Tm: 20 μM protein, 0.8–1.6 mM Biolog compound, Tm free protein 56.3 °C
Description: Tlp3 LBD from C. jejuni strain NCTC 11168 was expressed in E. coli, purified according to the previously published procedure and used for high-throughput screening against the compounds from the Biolog Phenotype Microarray (PM) libraries PM1, PM3B, and PM5 using thermal shift assays. […] Each plate contains 95 compounds and a negative control (water). Thermal-shift-based screening is based on the phenomenon that ligand-binding alters thermal stability of the protein, resulting in an increase or decrease in the protein’s melting temperature (Tm). Screening was performed by following the protocol previously described by McKellar et al., with minor modifications. The compounds in the Biolog PM plates were dissolved in 50 μL of water, yielding a final concentration of 10–20 mM (as indicated by the manufacturer). Each assay was performed in a 25 μL volume and contained 20 μM protein, 0.8–1.6 mM Biolog compound, 10 mM Tris-HCl pH 8.0, 150 mM NaCl, and 10× SYPRO orange reagent (5000× stock, catalogue number S5692; Sigma-Aldrich). The samples were heated from 35 °C to 80 °C at a ramp rate of 0.5 °C min^−1 using a Rotor-Gene Q real-time PCR cycler (Qiagen, Venlo, Netherlands). Protein denaturation was monitored by following changes in the SYPRO Orange fluorescence emission (λex 530 nm/λem 555 nm) that result from the dye binding to the exposed hydrophobic protein regions. All experiments were performed in triplicate. The midpoint of denaturation (the melting temperature Tm) was calculated by fitting the data to the Boltzmann sigmoidal equation for the two-state unfolding model using GraphPad Prism (version 7.02) (GraphPad Software, La Jolla, CA, USA). The thermal shift assay with the three potential ligands identified using in silico screening was performed at a ligand concentration of 5 mM, with other conditions the same.

C. jejuni WT strain = experiment: Nutrient-depleted hard agar plug chemotaxis assay, WT strain; type: cell-based, C. jejuni NCTC 11168; details: plugs prepared from 50–200 mM compound, CI > 1 attractant, < 1 repellent
Tlp3 LBD [3] = experiment: Co-crystallisation with Tlp3 LBD and X-ray electron density analysis; type: binding, C. jejuni; details: co-crystallised with 8 mM ligand; 1.4–1.5 Å resolution
Experimental: The solution was then clarified by centrifugation at 13,000 g, 4 °C for 20 min and protein crystallisation was carried out by the hanging drop vapour diffusion method using crystallisation conditions similar to those described previously. Briefly, crystals were grown in 2 µL hanging drops suspended over 500 µL reservoir solution containing 22% (w/v) polyethylene glycol 3350, 100 mM sodium citrate pH 5.0 and 200 mM ammonium sulphate. The hanging drop was prepared by adding 1 µL of the protein/ligand mix to 1 µL of the reservoir solution. Crystals of all Tlp3 LBD/ligand complexes had similar unit-cell parameters and belonged to space group P2_1 (Table 2), with two molecules in the asymmetric unit.
To perform data collection at cryogenic temperatures, the crystals were briefly soaked in a cryoprotectant solution consisting of 26% (w/v) polyethylene glycol 3350, 100 mM sodium citrate pH 5.0, 200 mM ammonium sulphate, 10% (v/v) glycerol, and 10 mM respective ligand, and then flash-cooled by plunging them into liquid nitrogen. X-ray diffraction data were collected at 100 K on the MX1 and MX2 beamlines of the Australian Synchrotron. The data were processed using iMOSFLM [65] and scaled with AIMLESS [66] from the CCP4 software suite.
The crystal structures were determined using molecular replacement with PHASER [68] and the protein coordinates of the Tlp3 LBD/isoleucine complex (PDB code, 4XMR) as a search model. The models were refined with PHENIX [69] and manually rebuilt where necessary using COOT [70]. Analysis of the stereochemical quality of the final models was performed using MOLPROBITY [71]. The accessible surface area was calculated using AREAIMOL from CCP4. The structure figures were produced using PyMOL 4.1 [72].

Tlp3 LBD Tyr118Ala = tested on: Tlp3 LBD Tyr118Ala; set-up: method as in PMID 26457436; details: Tyr118Ala vs wild-type Tlp3 LBD ref 32; cited from earlier work
Tlp3 LBD [4] = target: T1, Tlp3 LBD; set-up: method as in PMID 26457436; details: L-isoleucine not among ligands titrated here; listed as footnoted to previous study ref 32; cited from earlier work
C. jejuni Δtlp3 mutant = experiment: Nutrient-depleted hard agar plug chemotaxis assay, Δtlp3 mutant; type: cell-based, C. jejuni NCTC 11168; details: CI > 1 attractant, < 1 repellent
[5] = single-site model, NB = no binding detected by ITC

T1 sequence (Q0P864 entry or part of it): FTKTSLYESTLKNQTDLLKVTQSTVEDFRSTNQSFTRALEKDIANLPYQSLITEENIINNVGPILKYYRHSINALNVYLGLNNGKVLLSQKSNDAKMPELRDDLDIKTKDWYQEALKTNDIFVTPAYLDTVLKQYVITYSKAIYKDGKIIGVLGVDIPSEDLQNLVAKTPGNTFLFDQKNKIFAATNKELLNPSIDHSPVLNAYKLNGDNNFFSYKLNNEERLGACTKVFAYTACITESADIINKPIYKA

Row | SMILES | ∆H (Tlp3 LBD [1]) [kcal/mol] | ∆S (Tlp3 LBD [1]) [cal mol^−1 deg^−1] | Kd (Tlp3 LBD [1]; [5]) [µM] | Binding to Tlp3 LBD detected by ITC (Tlp3 LBD [1]) | Thermal Shift ∆Tm (Tlp3 LBD [2]) [°C] | further results
1 | CCC[C@@H](C)C(N)C(=O)O (stereo in doubt) [β-methyl-L-norleucine] | -6.2 ± 0.2 | −4.77 | 294 ± 14 | – | – | ΔTm at 5000 µM (Tlp3 LBD [2]): 3.7 ± 0.2 °C
2 | Nc1ccn([C@H]2C[C@H](O)[C@@H](CO)O2)c(=O)n1 [2-deoxycytidine] | – | – | – | no binding | 1.4 ± 0.8 | –
3 | CCC(C)(C)[C@H](N)C(=O)O [3-methyl-L-isoleucine] | -5.7 ± 0.2 | −4.03 | 484 ± 30 | – | – | Reduction of binding affinity (two methyl groups at Position 3) (Tlp3 LBD [1]; compared with single methyl substitution at Position 3 (L-isoleucine)): at least 5 fold; ΔTm at 5000 µM (Tlp3 LBD [2]): 2 ± 0.1 °C
4 | CC(C)[C@H](C)[C@H](N)C(=O)O [4-methyl-L-isoleucine] | -5.1 ± 0.2 | −1.01 | 324 ± 20 | – | – | ΔTm at 5000 µM (Tlp3 LBD [2]): 2.8 ± 0.3 °C
5 | C[C@H](N)C(=O)N[C@H](C(=O)O)[C@H](C)O [Ala-Thr] | – | – | – | no binding | 1.1 ± 0.3 | –
6 | C[C@H](N)C(=O)O [L-alanine] | -150.2 ± 54.5 | −495.50 | 4980 ± 917 | – | −0.6 ± 0.7 | Kd (Tlp3 LBD [1]; 50 mM ligand): ~5000 µM and 5000 µM; Chemotactic response (chemotactic index CI) (C. jejuni WT strain): Tlp3-dependent attractant response
7 | N=C(N)NCCC[C@H](N)C(=O)O [L-arginine] | – | – | – | no binding | – | Electron density for ligand bound to Tlp3 LBD in crystal (Tlp3 LBD [3]): no electron density
8 | N[C@@H](CC(=O)O)C(=O)O [L-aspartic acid] | – | – | – | no binding | – | Electron density for ligand bound to Tlp3 LBD in crystal (Tlp3 LBD [3]): no electron density
9 | CC[C@H](C)[C@H](N)C(=O)O [L-isoleucine] | – | – | – | – | – | Reduction in binding affinity on Tyr118Ala substitution (Tlp3 LBD Tyr118Ala): ≥ 35 fold; ∆H (Tlp3 LBD [4]): -4.4 ± 0.2 kcal/mol; ∆S (Tlp3 LBD [4]): 3.6 cal mol^−1 deg^−1
10 | CC(C)C[C@H](N)C(=O)O [L-leucine] | -4.6 ± 0.1 | 2.9 | 105 ± 6 | – | 2.4 ± 0.2 | –
11 | NCCCC[C@H](N)C(=O)O [L-lysine] | – | – | – | no binding | – | Electron density for ligand bound to Tlp3 LBD in crystal (Tlp3 LBD [3]): no electron density
12 | N[C@@H](Cc1ccccc1)C(=O)O [L-phenylalanine] | -5.9 ± 0.3 | −5.44 | 730 ± 55 | – | −0.3 ± 0.4 | Chemotactic response (chemotactic index CI) (C. jejuni WT strain): Tlp3-dependent attractant response
13 | CC(C)[C@H](N)C(=O)O [L-valine] | -4.4 ± 0.2 | 0.8 | 405 ± 27 | – | 1.3 ± 0.1 | –
14 | O=C(O)CC(O)C(=O)O (stereo not drawn) [malic acid] | – | – | – | – | – | Electron density for ligand bound to Tlp3 LBD in crystal (Tlp3 LBD [3]): no electron density
15 | COC(=O)C(C)=O [methyl pyruvate] | – | – | – | no binding | −1.8 ± 0.0 | –
16 | c1ncc2nc[nH]c2n1 [purine] | – | – | – | did not bind | – | –
17 | N[C@@H](CO)C(=O)O [serine, L-serine] | – | – | – | – | – | Chemotactic response (chemotactic index CI) (C. jejuni Δtlp3 mutant): did not affect
18 | CCC[C@@H](N)C(=O)O [α-amino-N-valeric acid] | -6.5 ± 0.2 | −4.5 | 168 ± 9 | – | 1.4 ± 0.3 | –
